Experimental data reported in patent US20090281049A1, “New use of ginsenoside compound-k in manufacturing medicaments” (priority 2006, published 2009).

What was measured:
[1] = tested on: carrageenan-induced acute inflammation in rats; assay: Carrageenan-induced paw edema in rats; assay type: in vivo, Rat, SD strain
Procedure: Animals were firstly divided into large dose group: 10 mg/kg, iv, medium dose group: 5 mg/kg, iv, small dose group: 2.5 mg/kg, iv, an Indomethacin group: 1 mg/kg, po and a blank control group: physiological saline 10 mg/kg, iv. The animals were administered by the foregoing method for 3 days. The volume of the right hind paw of the rats was measured using hydroplethismometer before inflammation induced. 1 hour after the last administration, 0.1 ml 1% carrageenan was injected into the plantar surface of the right hind paw in order to induce inflammation. The volume of the right hind paw of the rats was measured by hydroplethismometer every other hour thereafter respectively. Swell rate and inhibition rate were calculated by the same method as above. Differences among groups were compared with t test.

[2] = mice, 360 mg/kg iv
[3] = tested on: Adjuvant Arthritis in rats; assay: Preventive effect on adjuvant induced adjuvant arthritis in rats; assay type: in vivo, Rat, SD strain
Procedure: Freund's Adjuvant Complete, purchased from Sigma Company, was injected into the plantar surface of the right hind paw by 0.1 ml in order to induce inflammation in rats.
Animals were firstly divided into large dose group: 10 mg/kg, iv, medium dose group: 5 mg/kg, iv, small dose group: 2.5 mg/kg, iv, Indomethacin group: 1 mg/kg, po, Tripterygium Wilfordii Hook group: 1.5 mg/kg, po and blank control group: physiological saline 10 mg/kg, iv. The volume of the right hind paw of the rats was measured by using hydroplethismometer before inflammation induced. Then 0.1 ml Freund's Adjuvant Complete was injected into the plantar surface of the right hind paw in order to induce inflammation in rats. The rats were grouped by the foregoing division way in the succeeding day, and to be administered for 15 days. The volume of paw was measured in regular intervals. Swell rate and inhibition rate were calculated by the same method as the foregoing. Differences among groups were compared by t test.

CC(C)=CCC[C@](C)(O[C@@H]1O[C@H](CO)[C@@H](O)[C@H](O)[C@H]1O)[C@H]1CC[C@]2(C)[C@@H]1[C@H](O)C[C@@H]1[C@@]3(C)CC[C@H](O)C(C)(C)[C@@H]3CC[C@]12C [Ginsenoside Compound-K, ginsenoside Compound-K]
swell value ([1]; 2.5 mg/kg iv, 0 h): 1.33 ± 0.08 mL
inhibition rate ([1]; 2.5 mg/kg iv, 1 h): <13.97> %
swell rate ([1]; 2.5 mg/kg iv, 1 h): (20.22 ± 9.99) %
swell value ([1]; 2.5 mg/kg iv, 1 h): 1.59 ± 0.08 mL
inhibition rate ([1]; 2.5 mg/kg iv, 2 h): <8.80> %
swell rate ([1]; 2.5 mg/kg iv, 2 h): (29.40 ± 12.71) %
swell value ([1]; 2.5 mg/kg iv, 2 h): 1.71 ± 0.13 mL
inhibition rate ([1]; 2.5 mg/kg iv, 3 h): <16.54> %
swell rate ([1]; 2.5 mg/kg iv, 3 h): (34.80 ± 14.01) %
swell value ([1]; 2.5 mg/kg iv, 3 h): 1.79 ± 0.14 mL
inhibition rate ([1]; 2.5 mg/kg iv, 4 h): <24.08> %
swell rate ([1]; 2.5 mg/kg iv, 4 h): (29.49 ± 13.86) %
swell value ([1]; 2.5 mg/kg iv, 4 h): 1.71 ± 0.12 mL
inhibition rate ([1]; 2.5 mg/kg iv, 5 h): <15.78> %
swell rate ([1]; 2.5 mg/kg iv, 5 h): (31.22 ± 14.12) %
swell value ([1]; 2.5 mg/kg iv, 5 h): 1.74 ± 0.12 mL
swell value ([1]; 5 mg/kg iv, 0 h): 1.39 ± 0.12 mL
inhibition rate ([1]; 5 mg/kg iv, 1 h): <49.51> %
swell rate ([1]; 5 mg/kg iv, 1 h): (11.87 ± 6.23) %
swell value ([1]; 5 mg/kg iv, 1 h): 1.55 ± 0.11 mL
inhibition rate ([1]; 5 mg/kg iv, 2 h): <42.44> %
swell rate ([1]; 5 mg/kg iv, 2 h): (18.56 ± 9.77) %
swell value ([1]; 5 mg/kg iv, 2 h): 1.64 ± 0.09 mL
inhibition rate ([1]; 5 mg/kg iv, 3 h): <32.62> %
swell rate ([1]; 5 mg/kg iv, 3 h): (28.09 ± 11.34) %
swell value ([1]; 5 mg/kg iv, 3 h): 1.77 ± 0.12 mL
inhibition rate ([1]; 5 mg/kg iv, 4 h): <48.22> %
swell rate ([1]; 5 mg/kg iv, 4 h): (20.11 ± 11.20) %
swell value ([1]; 5 mg/kg iv, 4 h): 1.66 ± 0.13 mL
inhibition rate ([1]; 5 mg/kg iv, 5 h): <53.80> %
swell rate ([1]; 5 mg/kg iv, 5 h): (17.13 ± 10.13) %
swell value ([1]; 5 mg/kg iv, 5 h): 1.62 ± 0.11 mL
swell value ([1]; 10 mg/kg iv, 0 h): 1.42 ± 0.10 mL
inhibition rate ([1]; 10 mg/kg iv, 1 h): <72.87> %
swell rate ([1]; 10 mg/kg iv, 1 h): (6.38 ± 7.44) %
swell value ([1]; 10 mg/kg iv, 1 h): 1.51 ± 0.10 mL
inhibition rate ([1]; 10 mg/kg iv, 2 h): <56.96> %
swell rate ([1]; 10 mg/kg iv, 2 h): (13.87 ± 8.55) %
swell value ([1]; 10 mg/kg iv, 2 h): 1.62 ± 0.11 mL
inhibition rate ([1]; 10 mg/kg iv, 3 h): <61.49> %
swell rate ([1]; 10 mg/kg iv, 3 h): (16.06 ± 12.41) %
swell value ([1]; 10 mg/kg iv, 3 h): 1.65 ± 0.16 mL
inhibition rate ([1]; 10 mg/kg iv, 4 h): <70.38> %
swell rate ([1]; 10 mg/kg iv, 4 h): (11.51 ± 9.76) %
swell value ([1]; 10 mg/kg iv, 4 h): 1.58 ± 0.14 mL
inhibition rate ([1]; 10 mg/kg iv, 5 h): <78.23> %
swell rate ([1]; 10 mg/kg iv, 5 h): (8.07 ± 10.88) %
swell value ([1]; 10 mg/kg iv, 5 h): 1.53 ± 0.12 mL
overall effect on carrageenan-induced acute inflammation ([1]; rats, 10, 5, 2.5 mg/kg iv): able to inhibit carrageenan-induced acute inflammation in rats obviously
behaviour after intravenous injection [2]: their act was normal and no behavior out of the way was observed
swell value ([3]; 2.5 mg/kg iv, 0 day): 1.24 ± 0.08 mL
inhibition rate ([3]; 2.5 mg/kg iv, 2 day): <21.71> %
swell rate ([3]; 2.5 mg/kg iv, 2 day): (56.65 ± 17.83) %
swell value ([3]; 2.5 mg/kg iv, 2 day): 2.14 ± 0.15 mL
inhibition rate ([3]; 2.5 mg/kg iv, 4 day): <18.33> %
swell rate ([3]; 2.5 mg/kg iv, 4 day): (73.11 ± 15.82) %
swell value ([3]; 2.5 mg/kg iv, 4 day): 2.14 ± 0.15 mL
inhibition rate ([3]; 2.5 mg/kg iv, 6 day): <20.67> %
swell rate ([3]; 2.5 mg/kg iv, 6 day): (70.87 ± 14.91) %
swell value ([3]; 2.5 mg/kg iv, 6 day): 2.11 ± 0.10 mL
inhibition rate ([3]; 2.5 mg/kg iv, 9 day): <20.95> %
swell rate ([3]; 2.5 mg/kg iv, 9 day): (57.25 ± 14.42) %
swell value ([3]; 2.5 mg/kg iv, 9 day): 1.95 ± 0.17 mL
inhibition rate ([3]; 2.5 mg/kg iv, 11 day): <20.82> %
swell rate ([3]; 2.5 mg/kg iv, 11 day): (61.69 ± 21.61) %
swell value ([3]; 2.5 mg/kg iv, 11 day): 2.00 ± 0.26 mL
inhibition rate ([3]; 2.5 mg/kg iv, 13 day): <25.97> %
swell rate ([3]; 2.5 mg/kg iv, 13 day): (61.24 ± 13.26) %
swell value ([3]; 2.5 mg/kg iv, 13 day): 2.00 ± 0.15 mL
inhibition rate ([3]; 2.5 mg/kg iv, 15 day): <28.05> %
swell rate ([3]; 2.5 mg/kg iv, 15 day): (58.02 ± 15.92) %
swell value ([3]; 2.5 mg/kg iv, 15 day): 1.96 ± 0.20 mL
swell value ([3]; 5 mg/kg iv, 0 day): 1.25 ± 0.06 mL
inhibition rate ([3]; 5 mg/kg iv, 2 day): <35.56> %
swell rate ([3]; 5 mg/kg iv, 2 day): (46.63 ± 11.66) %
swell value ([3]; 5 mg/kg iv, 2 day): 2.10 ± 0.21 mL
inhibition rate ([3]; 5 mg/kg iv, 4 day): <23.65> %
swell rate ([3]; 5 mg/kg iv, 4 day): (68.35 ± 15.68) %
swell value ([3]; 5 mg/kg iv, 4 day): 2.10 ± 0.21 mL
inhibition rate ([3]; 5 mg/kg iv, 6 day): <17.94> %
swell rate ([3]; 5 mg/kg iv, 6 day): (73.31 ± 17.73) %
swell value ([3]; 5 mg/kg iv, 6 day): 2.16 ± 0.18 mL
inhibition rate ([3]; 5 mg/kg iv, 9 day): <20.45> %
swell rate ([3]; 5 mg/kg iv, 9 day): (57.60 ± 13.83) %
swell value ([3]; 5 mg/kg iv, 9 day): 1.97 ± 0.21 mL
inhibition rate ([3]; 5 mg/kg iv, 11 day): <28.37> %
swell rate ([3]; 5 mg/kg iv, 11 day): (55.81 ± 11.54) %
swell value ([3]; 5 mg/kg iv, 11 day): 1.95 ± 0.18 mL
inhibition rate ([3]; 5 mg/kg iv, 13 day): <27.79> %
swell rate ([3]; 5 mg/kg iv, 13 day): (59.74 ± 11.82) %
swell value ([3]; 5 mg/kg iv, 13 day): 2.00 ± 0.18 mL
inhibition rate ([3]; 5 mg/kg iv, 15 day): <29.21> %
swell rate ([3]; 5 mg/kg iv, 15 day): (57.08 ± 14.00) %
swell value ([3]; 5 mg/kg iv, 15 day): 1.96 ± 0.21 mL
swell value ([3]; 10 mg/kg iv, 0 day): 1.29 ± 0.08 mL
inhibition rate ([3]; 10 mg/kg iv, 2 day): <29.48> %
swell rate ([3]; 10 mg/kg iv, 2 day): (51.03 ± 8.03) %
swell value ([3]; 10 mg/kg iv, 2 day): 2.17 ± 0.14 mL
inhibition rate ([3]; 10 mg/kg iv, 4 day): <22.99> %
swell rate ([3]; 10 mg/kg iv, 4 day): (68.94 ± 10.49) %
swell value ([3]; 10 mg/kg iv, 4 day): 2.17 ± 0.14 mL
inhibition rate ([3]; 10 mg/kg iv, 6 day): <19.52> %
swell rate ([3]; 10 mg/kg iv, 6 day): (71.90 ± 9.64%
swell value ([3]; 10 mg/kg iv, 6 day): 2.21 ± 0.15 mL
inhibition rate ([3]; 10 mg/kg iv, 9 day): <19.59> %
swell rate ([3]; 10 mg/kg iv, 9 day): (58.23 ± 11.44) %
swell value ([3]; 10 mg/kg iv, 9 day): 2.03 ± 0.15 mL
inhibition rate ([3]; 10 mg/kg iv, 11 day): <30.08> %
swell rate ([3]; 10 mg/kg iv, 11 day): (54.48 ± 12.39) %
swell value ([3]; 10 mg/kg iv, 11 day): 1.98 ± 0.14 mL
inhibition rate ([3]; 10 mg/kg iv, 13 day): <29.83> %
swell rate ([3]; 10 mg/kg iv, 13 day): (58.04 ± 10.97) %
swell value ([3]; 10 mg/kg iv, 13 day): 2.03 ± 0.13 mL
inhibition rate ([3]; 10 mg/kg iv, 15 day): <31.26> %
swell rate ([3]; 10 mg/kg iv, 15 day): (55.42 ± 14.65) %
swell value ([3]; 10 mg/kg iv, 15 day): 1.99 ± 0.18 mL
overall preventive effect on Adjuvant Arthritis ([3]; rats, 10, 5, 2.5 mg/kg iv for 15 days): able to prevent Adjuvant Arthritis in rats
